Measurements reported in PubChem BioAssay (NCI).
Values joined by “and” are separate entries in the source; they are usually repeats but may differ in a detail not shown here. Equal values may be shown once.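 The compound was tested at five concentrations on cells cultured in 96-well plates, with a 48-hour exposure period. At the GI50, growth is halved. TGI marks complete inhibition of growth.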

Tests used:
Assay in all cases: NCI anticancer screen, dose series, 48 h
NCI-H460 lung = test system: NCI-H460 lung
OVCAR-4 ovarian = test system: OVCAR-4 ovarian
HS 578T breast = test system: HS 578T breast
MALME-3M melanoma = test system: MALME-3M melanoma
ACHN renal = test system: ACHN renal
SN12C renal = test system: SN12C renal
M14 melanoma = test system: M14 melanoma
HOP-92 NSCLC = test system: HOP-92 NSCLC
NCI-H23 lung = test system: NCI-H23 lung
U251 CNS = test system: U251 CNS

SMILES	GI50 (NCI-H460 lung)	TGI (NCI-H460 lung)	GI50 (OVCAR-4 ovarian)	TGI (OVCAR-4 ovarian)	GI50 (HS 578T breast)	TGI (HS 578T breast)	GI50 (MALME-3M melanoma)	TGI (MALME-3M melanoma)	GI50 (ACHN renal)	TGI (ACHN renal)	GI50 (SN12C renal)	TGI (SN12C renal)	GI50 (M14 melanoma)	TGI (M14 melanoma)	GI50 (HOP-92 NSCLC)	TGI (HOP-92 NSCLC)	GI50 (NCI-H23 lung)	TGI (NCI-H23 lung)	GI50 (U251 CNS)	TGI (U251 CNS)
CC(=O)/C=C/c1ccc(OCc2ccc(Cl)cc2)cc1	529 µM	> 1000 µM	648 µM	> 1000 µM	> 1000 µM	> 1000 µM	330 µM	> 1000 µM	> 1000 µM	> 1000 µM	893 µM	> 1000 µM	559 µM	> 1000 µM	372 µM	> 1000 µM	720 µM	> 1000 µM	> 1000 µM	> 1000 µM
COC(=O)c1cc(OC)c(OC)c(OC)c1-c1cc2c(cc1C=O)OCO2	–	> 10 µM	–	> 10 µM	–	> 10 µM	–	> 10 µM	–	> 10 µM	–	> 10 µM	–	> 10 µM	–	> 10 µM	–	> 10 µM	–	> 10 µM
O=C1CN(c2cccc(Cl)c2)C(=O)CN1NCNN1CC(=O)N(c2cccc(Cl)c2)CC1=O	–	> 100 µM	–	> 100 µM	–	> 100 µM	–	> 100 µM	–	> 100 µM	–	> 100 µM	–	> 100 µM	–	> 100 µM	–	> 100 µM	–	> 100 µM
COc1ccc(CCN2CCC(CN(C)Cc3cnn(-c4ccccc4)c3)CC2)cc1	18.7 µM	39.2 µM	7.75 µM	57.5 µM	13.5 µM	32.6 µM	2.08 µM	4.29 µM	10.9 µM	33 µM	21.3 µM	> 100 µM	–	–	4.61 µM	19.3 µM	29.8 µM	> 100 µM	13 µM	27 µM
CC(=O)Nc1n[n+]([O-])c2cc(C)ccc2[n+]1[O-]	–	2.14 µM	–	18 µM	–	40.7 µM	–	18.5 µM	–	11.2 µM	–	18.8 µM	–	8.3 µM	–	7.29 µM	–	9.32 µM	–	14.2 µM
Cc1cc(O)c(C2=NN(c3ccc(S(N)(=O)=O)cc3)C(/C=C/c3ccccc3)C2)cc1Cl (stereo not drawn)	4.03 µM	17 µM	3.74 µM	18.9 µM	12.3 µM	49.7 µM	3.01 µM	17.4 µM	5.27 µM	21.9 µM	11.1 µM	25.6 µM	6.16 µM	19.3 µM	2.36 µM	8.48 µM	1.68 µM	12.5 µM	3.79 µM	15.6 µM
CC1(C)O[C@@H]2C[C@H]3[C@@H]4C[C@H](F)C5=CC(=O)C=C[C@]5(C)[C@@]4(F)[C@@H](O)C[C@]3(C)[C@]2(C(=O)CO)O1	–	> 100 µM	–	> 100 µM	–	> 100 µM	–	> 100 µM	–	> 100 µM	–	> 100 µM	–	> 100 µM	–	> 100 µM	–	> 100 µM	–	> 100 µM
C=Cn1c([N+](=O)[O-])cnc1/C=C/c1ccc(C(=O)OCCN2CCOCC2)cc1	–	> 100 µM	–	> 100 µM	–	> 100 µM	–	> 100 µM	–	> 100 µM	–	> 100 µM	–	> 100 µM	–	> 100 µM	–	> 100 µM	–	> 100 µM
COc1ccc(-c2csc(NC(=O)CN3CCN(c4cc5c(cc4F)c(=O)c(C(=O)O)cn5C4CC4)CC3)n2)cc1	3.18 µM	> 100 µM	–	–	9.82 µM	> 100 µM	2.37 µM	7.49 µM	3.25 µM	> 100 µM	3.37 µM	> 100 µM	4.1 µM	> 100 µM	2.82 µM	7.17 µM	2.9 µM	> 100 µM	3.03 µM	13.9 µM
COC(=O)C(C(=O)OC)C(Br)C(Br)C(Br)c1ccccc1 (stereo not drawn)	19.9 µM	37.2 µM	4.33 µM	17.8 µM	18.4 µM	62.8 µM	2.34 µM	4.92 µM	2.8 µM	7.16 µM	14 µM	27.3 µM	12.9 µM	27.5 µM	11.8 µM	25.3 µM	–	–	14.8 µM	28 µM
Cc1[nH]c2cc(F)ccc2c1-c1nc2c3cccnc3c3ncccc3c2[nH]1	0.322 µM	1.03 µM	0.0438 µM	1.23 µM	1.09 µM	4.74 µM	0.202 µM	0.769 µM	0.254 µM	1.45 µM	0.399 µM	3.38 µM	0.187 µM	0.667 µM	0.204 µM	1.41 µM	0.343 µM	1.89 µM	0.121 µM	1.22 µM
CC(=O)O[C@H]1CC[C@@]2(C)C(=C/C(=N/OCCN3CCCC3)[C@H]3[C@@H]4CC[C@H](OC(C)=O)[C@@]4(C)CC[C@@H]32)C1	24.8 µM	52.1 µM	> 100 µM	> 100 µM	34.9 µM	> 100 µM	18 µM	36.1 µM	> 100 µM	> 100 µM	> 100 µM	> 100 µM	17.6 µM	37.2 µM	16.7 µM	96.5 µM	> 100 µM	> 100 µM	67.1 µM	> 100 µM
COc1ccc2c(c1)-c1nn(CCCN(C)C)c3ccc([N+](=O)[O-])c(c13)N2	0.103 µM and 0.27 µM	1.21 µM and 3.06 µM	0.234 µM and 0.649 µM	1.18 µM and 2 µM	0.355 µM	3.17 µM and 3.24 µM	0.306 µM and 0.908 µM	2.9 µM and 7.68 µM	0.102 µM and 0.26 µM	1.25 µM and 3.69 µM	–	3.68 µM and 10.1 µM	–	4.7 µM and 7 µM	0.192 µM and 0.764 µM	1.77 µM and 4.97 µM	–	2.08 µM and 2.3 µM	0.178 µM and 0.502 µM	4.94 µM and 14.7 µM
CCOc1ccc2c(c1)c(CC(=O)O)cn2C	–	> 100 µM	–	–	–	> 100 µM	–	> 100 µM	–	> 100 µM	–	> 100 µM	–	> 100 µM	–	> 100 µM	–	> 100 µM	–	> 100 µM
CN(CCCCCl)P(=O)(OCc1ccc([N+](=O)[O-])o1)OCC1OC(n2cnc([N+](=O)[O-])c2N)C(O)C1O (stereo not drawn)	> 100 µM	> 100 µM	> 100 µM	> 100 µM	> 100 µM	> 100 µM	> 100 µM	> 100 µM	> 100 µM	> 100 µM	> 100 µM	> 100 µM	–	–	> 100 µM	> 100 µM	> 100 µM	> 100 µM	> 100 µM	> 100 µM
